ChEMBL document CHEMBL1128625, “Synthesis and antibacterial activity of cephalosporins having C-3 catechol-containing (pyridinium-4-thio)-methyl groups” (1995)
In brackets after ≈: the same amount, converted by molar mass.

Legend:
Escherichia coli = assay: In vitro antibacterial activity against Escherichia coli NIHJ JC-2 bacteria; type: functional
Pseudomonas aeruginosa [1] = assay: In vitro antibacterial activity against Pseudomonas aeruginosa NCTC-10490 bacteria; type: functional
Pseudomonas aeruginosa [2] = assay: In vitro antibacterial activity against Pseudomonas aeruginosa ATCC 10145 bacteria; type: functional
Staphylococcus aureus = assay: In vitro antibacterial activity against Staphylococcus aureus FDA 209P bacteria; type: functional
Mus musculus [3] = species on record: Mus musculus; assay: Challenged dose in mouse infected with Pseudomonas aeruginosa E-2; type: functional
Mus musculus [4] = assay: In vivo therapeutic efficacy against systemic infections in mice using Pseudomonas aeruginosa E-2 as a test organism; type: functional
Pseudomonas aeruginosa [5] = assay: In vivo therapeutic efficacy against systemic infections in mice using Pseudomonas aeruginosa E-2 as a test organism
Mus musculus [6] = assay: In vivo therapeutic efficacy against systemic infections in mice using Pseudomonas aeruginosa E-2 as a test organism.; type: functional

Row | MIC (Escherichia coli) | MIC (Pseudomonas aeruginosa [1]) | MIC (Pseudomonas aeruginosa [2]) | MIC (Staphylococcus aureus) | MIC (Pseudomonas aeruginosa [5]) | Structure (SMILES) | Challenge dose (Mus musculus [3]) | ED50 (Mus musculus [4]) | ED50 (Mus musculus [6]) | MIC (Mus musculus [6])
1 | 0.78 µg/mL (≈ 1.11 µM) | 0.05 µg/mL (≈ 0.0712 µM) | 0.39 µg/mL (≈ 0.556 µM) | 6.25 µg/mL (≈ 8.91 µM) | – | CC(C)(O/N=C(\C(=O)N[C@@H]1C(=O)N2C(C(=O)[O-])=C(CSc3cc[n+](Cc4cc(O)c(O)cn4)cc3)CS[C@H]12)c1csc(N)n1)C(=O)O | – | – | – | –
2 | 0.1 µg/mL (≈ 0.137 µM) | ≤ 0.025 µg/mL | 0.05 µg/mL (≈ 0.0686 µM) | 3.13 µg/mL (≈ 4.29 µM) | – | CC(C)(O/N=C(\C(=O)N[C@@H]1C(=O)N2C(C(=O)[O-])=C(CSc3cc[n+](CC(=O)c4ccc(O)c(O)c4)cc3)CS[C@H]12)c1csc(N)n1)C(=O)O | – | – | – | –
3 | 0.05 µg/mL (≈ 0.0714 µM) | ≤ 0.025 µg/mL | 0.1 µg/mL (≈ 0.143 µM) | 3.13 µg/mL (≈ 4.47 µM) | 0.1 µg/mL (≈ 0.143 µM) | Nc1nc(/C(=N/OCC(=O)O)C(=O)N[C@@H]2C(=O)N3C(C(=O)[O-])=C(CSc4cc[n+](CC(=O)c5ccc(O)c(O)c5)cc4)CS[C@H]23)cs1 | 1000000 cells mouse-1 | > 20 mg/kg | – | –
4 | 0.1 µg/mL (≈ 0.152 µM) | 0.05 µg/mL (≈ 0.0761 µM) | 0.39 µg/mL (≈ 0.594 µM) | 0.78 µg/mL (≈ 1.19 µM) | – | CO/N=C(\C(=O)N[C@@H]1C(=O)N2C(C(=O)[O-])=C(CSc3cc[n+](CC(=O)c4ccc(O)c(O)c4)cc3)CS[C@H]12)c1csc(N)n1 | – | – | – | –

Row | Structure (SMILES) | MIC (Escherichia coli) | MIC (Pseudomonas aeruginosa [1]) | MIC (Pseudomonas aeruginosa [2]) | MIC (Staphylococcus aureus) | MIC (Pseudomonas aeruginosa [5]) | Challenge dose (Mus musculus [3]) | ED50 (Mus musculus [4]) | ED50 (Mus musculus [6]) | MIC (Mus musculus [6])
5 | CC(C)(O/N=C(\C(=O)N[C@@H]1C(=O)N2C(C(=O)[O-])=C(C[n+]3ccccc3)CS[C@H]12)c1csc(N)n1)C(=O)O [CEFTAZIDIME] | 0.39 µg/mL (≈ 0.714 µM) | 0.78 µg/mL (≈ 1.43 µM) | 1.56 µg/mL (≈ 2.85 µM) | 3.13 µg/mL (≈ 5.73 µM) | – | 1000000 cells mouse-1 | – | 34.4 mg/kg | 1.56 µg/mL (≈ 2.85 µM)
